# Experimental data as given in PubChem BioAssay (NCI).
#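 How tested: cells in 96-well plates exposed to compound for 48 hours at five concentrations. At the GI50, growth is halved. TGI is the concentration that stops growth completely.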
# Assays:
# Assay in all cases: NCI-60 cell line screen, 48 h
# HCT-15 colon = system: HCT-15 colon
# UACC-257 melanoma = system: UACC-257 melanoma
# OVCAR-4 ovarian = system: OVCAR-4 ovarian
# LOX IMVI melanoma = system: LOX IMVI melanoma
# 786-0 renal = system: 786-0 renal
# KM12 colon = system: KM12 colon
# CAKI-1 renal = system: CAKI-1 renal
# OVCAR-8 ovarian = system: OVCAR-8 ovarian
# HCC-2998 colon = system: HCC-2998 colon
# HS 578T breast = system: HS 578T breast
# HOP-62 NSCLC = system: HOP-62 NSCLC
# OVCAR-3 ovarian = system: OVCAR-3 ovarian
# DU-145 prostate = system: DU-145 prostate
# HT29 colon = system: HT29 colon
# MDA-MB-435 = system: MDA-MB-435
# SK-MEL-5 melanoma = system: SK-MEL-5 melanoma
# HL-60(TB) leukemia = system: HL-60(TB) leukemia
# TK-10 renal = system: TK-10 renal
# A549 NSCLC = system: A549 NSCLC
# BT-549 breast = system: BT-549 breast
# EKVX NSCLC = system: EKVX NSCLC
# K-562 leukemia = system: K-562 leukemia
# MOLT-4 leukemia = system: MOLT-4 leukemia
# U251 CNS = system: U251 CNS
# M14 melanoma = system: M14 melanoma
# SK-MEL-2 melanoma = system: SK-MEL-2 melanoma
# IGROV1 ovarian = system: IGROV1 ovarian
# HCT-116 colon = system: HCT-116 colon
# HOP-92 NSCLC = system: HOP-92 NSCLC
# CCRF-CEM leukemia = system: CCRF-CEM leukemia
# RXF 393 renal = system: RXF 393 renal
# SF-295 CNS = system: SF-295 CNS
# SK-OV-3 ovarian = system: SK-OV-3 ovarian
# T-47D breast = system: T-47D breast
# UACC-62 melanoma = system: UACC-62 melanoma
# NCI/ADR-RES ovarian = system: NCI/ADR-RES ovarian
# A498 renal = system: A498 renal
# MDA-MB-468 breast = system: MDA-MB-468 breast
# OVCAR-5 ovarian = system: OVCAR-5 ovarian
# PC-3 prostate = system: PC-3 prostate
# NCI-H23 lung = system: NCI-H23 lung
# ACHN renal = system: ACHN renal
# SW-620 colon = system: SW-620 colon
# SNB-19 CNS = system: SNB-19 CNS
# MCF7 breast = system: MCF7 breast
# NCI-H522 lung = system: NCI-H522 lung
# SK-MEL-28 melanoma = system: SK-MEL-28 melanoma
# SNB-75 CNS = system: SNB-75 CNS
# MALME-3M melanoma = system: MALME-3M melanoma
# NCI-H226 lung = system: NCI-H226 lung
# SN12C renal = system: SN12C renal
# COLO 205 colon = system: COLO 205 colon
# NCI-H460 lung = system: NCI-H460 lung
# RPMI-8226 leukemia = system: RPMI-8226 leukemia
# SF-539 CNS = system: SF-539 CNS
# SF-268 CNS = system: SF-268 CNS
structure (smiles),measurement,setting,value
O=C(c1ccccc1)n1ccc(-c2cc3cc(Br)ccc3oc2=O)n1,GI50,HCT-15 colon,2.88 µM
same,TGI,HCT-15 colon,> 100 µM
same,GI50,UACC-257 melanoma,4 µM
same,TGI,UACC-257 melanoma,30.2 µM
same,GI50,OVCAR-4 ovarian,4.56 µM
same,TGI,OVCAR-4 ovarian,> 100 µM
same,GI50,LOX IMVI melanoma,2.8 µM
same,TGI,LOX IMVI melanoma,90.9 µM
same,GI50,786-0 renal,3.99 µM
same,TGI,786-0 renal,> 100 µM
same,GI50,KM12 colon,4.45 µM
same,TGI,KM12 colon,> 100 µM
same,GI50,CAKI-1 renal,4.16 µM
same,TGI,CAKI-1 renal,> 100 µM
same,GI50,OVCAR-8 ovarian,2.73 µM
same,TGI,OVCAR-8 ovarian,51.6 µM
same,GI50,HCC-2998 colon,5.29 µM
same,TGI,HCC-2998 colon,> 100 µM
same,GI50,HS 578T breast,17.5 µM
same,TGI,HS 578T breast,> 100 µM
same,GI50,HOP-62 NSCLC,3.48 µM
same,TGI,HOP-62 NSCLC,> 100 µM
same,GI50,OVCAR-3 ovarian,2.06 µM
same,TGI,OVCAR-3 ovarian,> 100 µM
same,GI50,DU-145 prostate,8.9 µM
same,TGI,DU-145 prostate,> 100 µM
same,GI50,HT29 colon,16.5 µM
same,TGI,HT29 colon,> 100 µM
same,GI50,MDA-MB-435,14.7 µM
same,TGI,MDA-MB-435,> 100 µM
same,GI50,SK-MEL-5 melanoma,4.14 µM
same,TGI,SK-MEL-5 melanoma,23.6 µM
same,GI50,HL-60(TB) leukemia,2.09 µM
same,TGI,HL-60(TB) leukemia,5.49 µM
same,GI50,TK-10 renal,47.5 µM
same,TGI,TK-10 renal,> 100 µM
same,GI50,A549 NSCLC,12.6 µM
same,TGI,A549 NSCLC,> 100 µM
same,GI50,BT-549 breast,5.18 µM
same,TGI,BT-549 breast,78 µM
same,GI50,EKVX NSCLC,2.7 µM
same,TGI,EKVX NSCLC,> 100 µM
same,GI50,K-562 leukemia,3.59 µM
same,TGI,K-562 leukemia,> 100 µM
same,GI50,MOLT-4 leukemia,3.32 µM
same,TGI,MOLT-4 leukemia,9.55 µM
same,GI50,U251 CNS,4.82 µM
same,TGI,U251 CNS,> 100 µM
same,GI50,M14 melanoma,3.94 µM
same,TGI,M14 melanoma,24 µM
same,GI50,SK-MEL-2 melanoma,5.6 µM
same,TGI,SK-MEL-2 melanoma,74.7 µM
same,GI50,IGROV1 ovarian,5.48 µM
same,TGI,IGROV1 ovarian,> 100 µM
same,GI50,HCT-116 colon,3.52 µM
same,TGI,HCT-116 colon,> 100 µM
same,GI50,HOP-92 NSCLC,0.545 µM
same,TGI,HOP-92 NSCLC,> 100 µM
same,GI50,CCRF-CEM leukemia,1.52 µM
same,TGI,CCRF-CEM leukemia,15.6 µM
same,GI50,RXF 393 renal,6.18 µM
same,TGI,RXF 393 renal,> 100 µM
same,GI50,SF-295 CNS,8.91 µM
same,TGI,SF-295 CNS,> 100 µM
same,GI50,SK-OV-3 ovarian,6.08 µM
same,TGI,SK-OV-3 ovarian,62.5 µM
same,GI50,T-47D breast,6.22 µM
same,TGI,T-47D breast,70.9 µM
same,GI50,UACC-62 melanoma,3.55 µM
same,TGI,UACC-62 melanoma,22.9 µM
same,GI50,NCI/ADR-RES ovarian,4.13 µM
same,TGI,NCI/ADR-RES ovarian,81.3 µM
same,GI50,A498 renal,> 100 µM
same,TGI,A498 renal,> 100 µM
same,GI50,MDA-MB-468 breast,3.6 µM
same,TGI,MDA-MB-468 breast,25.2 µM
same,GI50,OVCAR-5 ovarian,13.9 µM
same,TGI,OVCAR-5 ovarian,> 100 µM
same,GI50,PC-3 prostate,4.05 µM
same,TGI,PC-3 prostate,> 100 µM
same,GI50,NCI-H23 lung,5.87 µM
same,TGI,NCI-H23 lung,> 100 µM
same,GI50,ACHN renal,3.94 µM
same,TGI,ACHN renal,> 100 µM
same,GI50,SW-620 colon,5.15 µM
same,TGI,SW-620 colon,> 100 µM
same,GI50,SNB-19 CNS,9.97 µM
same,TGI,SNB-19 CNS,> 100 µM
same,GI50,MCF7 breast,2.74 µM
same,TGI,MCF7 breast,> 100 µM
same,GI50,NCI-H522 lung,3.36 µM
same,TGI,NCI-H522 lung,17 µM
same,GI50,SK-MEL-28 melanoma,6.05 µM
same,TGI,SK-MEL-28 melanoma,> 100 µM
same,GI50,SNB-75 CNS,7.09 µM
same,TGI,SNB-75 CNS,> 100 µM
same,GI50,MALME-3M melanoma,5.9 µM
same,TGI,MALME-3M melanoma,> 100 µM
same,GI50,NCI-H226 lung,7.23 µM
same,TGI,NCI-H226 lung,62.1 µM
same,GI50,SN12C renal,6.28 µM
same,TGI,SN12C renal,> 100 µM
same,GI50,COLO 205 colon,19.1 µM
same,TGI,COLO 205 colon,73.6 µM
same,GI50,NCI-H460 lung,3.78 µM
same,TGI,NCI-H460 lung,> 100 µM
same,GI50,RPMI-8226 leukemia,3.8 µM
same,TGI,RPMI-8226 leukemia,> 100 µM
same,GI50,SF-539 CNS,7.44 µM
same,TGI,SF-539 CNS,67.3 µM
same,GI50,SF-268 CNS,4.29 µM
same,TGI,SF-268 CNS,> 100 µM
